# Experimental data as given in paper PMC5962679 (Frontiers in Cellular and Infection Microbiology, 2018).
# Ends that are not written are not given here.
# Legend:
# Experiment in all cases: biochemical
# Type in all cases: binding
# Details in all cases: for inhibition at 250 µM: 24 h, read-out: Binding percentage
# HLA-DRB1*0401 = molecular target: T1, HLA-DRB1*0401 (Homo sapiens, UniProt P01903+P01911, A100K/A169T/F76Y/I96L/K127E/L162R/M171V/N62H/P40V/Q125Y/R42H/S133A/S149N/S66Y/V115G/V209L/W38E)
# T1 construct: homozygous lymphoblastoid B-cell lines (International Histocompatibility Working Group); host or cells: human HLA-DRB1*0401 homozygous lymphoblastoid B-cell line
# HLA-DRB1*1302 = HLA-DRB1*1302 (Homo sapiens, UniProt P01903+P01911, A100E/A169T/K41T/L162R/M171V/P40S/Q125H/Q178H/Q39Y/Q99D/R42S/S66N/T262R/V115G/W38E/Y61H)
# HLA-DRB1*1101 = HLA-DRB1*1101 (Homo sapiens, UniProt P01903+P01911, A100R/A169T/A87E/I96F/K41T/L162R/M171V/P40S/Q125H/Q178H/Q39Y/Q99D/R42S/S66Y/T262R/V115G/W38E)
# HLA-DRB1*0701 = HLA-DRB1*0701 (Homo sapiens, UniProt P01903+P01911, A100R/A102G/A103Q/D57E/D86V/E43K/F76Y/K127E/L162R/M171V/P40G/Q125H/Q99D/R33Q/R42Y/R54Q/S133A/S66F/T210M/V115G/Y107V/Y59L/Y89S)
# HLA-DRB1*1101, sequence (P01903 26-254 limits assumed, other chains not shown): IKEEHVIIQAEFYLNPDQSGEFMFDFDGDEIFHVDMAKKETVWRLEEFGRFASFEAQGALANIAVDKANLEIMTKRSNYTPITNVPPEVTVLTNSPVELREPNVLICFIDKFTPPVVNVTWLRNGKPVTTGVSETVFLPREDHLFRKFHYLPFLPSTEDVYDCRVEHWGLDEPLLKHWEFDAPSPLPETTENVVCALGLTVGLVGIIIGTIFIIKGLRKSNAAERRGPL
# HLA-DRB1*1302, sequence (P01903 26-254 limits assumed, other chains not shown): as above
Sequence,IC50 (HLA-DRB1*0401),inhibition at 250 µM (HLA-DRB1*0401),IC50 (HLA-DRB1*1302),inhibition at 250 µM (HLA-DRB1*1302),IC50 (HLA-DRB1*1101),inhibition at 250 µM (HLA-DRB1*1101),IC50 (HLA-DRB1*0701),inhibition at 250 µM (HLA-DRB1*0701)
MKLLQHIPANLLENI [compound 39153],57 µM,61.2%,10.7 µM,91.9%,52.1 µM,72.7%,7.5 µM,85.4%
RGPVNYHFSNYMNLD [compound 39047],54.5 µM,59.8%,–,37.8%,–,0%,6 µM,90.4%
LFYVNLFIMSSLSRK [compound 39152],2.8 µM,65.8%,8 µM,94.7%,1.9 µM,91.8%,–,11%
LKFIVRGNNLKFLNN [compound 39154],–,22.2%,6.5 µM,90.1%,–,24.9%,–,43.7%
